Assay results reported in patent publication EP3644968B1, “LEVOCLOPERASTINE FENDIZOATE SUSPENSION HAVING ENHANCED DISSOLUTION AND RESUSPENDABILITY” (Ilko Ilaç Sanayi Ve Ticaret Anonim Sirketi, priority 2017, dated 2019).

What was measured:
cough = conditions: cited from earlier work
[1] = system: cough caused by tracheal mechanical stimulus; conditions: guinea pig, relative to codeine; cited from earlier work
[2] = particle size distribution by laser diffraction (Malvern Mastersizer-2000, dry dispersion); format: physicochemical; conditions: volume particle size distribution of the drug substance used
Method: Particle size is determined by laser light scattering using a particle size analyzer, such as the proprietary Mastersizer™ apparatus in a dry dispersion system available from Malvern Instruments Ltd. (Malvern Mastersizer-2000, single narrow mode). Laser diffraction enables to measure particle size distributions by measuring the angular variation by scattering light intensity as a laser beam passes through a dispersed particulate sample. Large particles scatter light at small angles relative to the laser beam and small particles scatter light at large angles. The angular scattering intensity data is then analyzed to calculate the size of the particles responsible for creating the scattering pattern, using the Mie theory of light scattering. The particle size is reported as a volume equivalent sphere diameter.
A common approach to define the distribution width is to cite three values on the x-axis as D10, D50 and D90. The D50, named as median, has been defined as the diameter where 50 percent of the distribution lies below this value. Similarly, D90 has been defined as 90 percent of the distribution lies below, and 10 percent of the population lies below the D10.

SMILES | duration of action of a single dose (cough; single dose) [h] | initial response after oral administration (cough; therapeutic dose range 10-20 mg three times daily for adults, oral) [min] | efficacy against cough, times greater than codeine [1] [times] | d(0.1) [2] | d(0.5) [2] | d(0.9) [2]
Clc1ccc(C(OCCN2CCCCC2)c2ccccc2)cc1 (racemic) [cloperastine] | 3 to 4 | 20 to 30 | 1.9 |  |  | 
Clc1ccc([C@@H](OCCN2CCCCC2)c2ccccc2)cc1.O=C(O)c1ccccc1C(=O)c1ccc(O)c(-c2ccccc2)c1 [Levocloperastine fendizoate] |  |  |  | d(0.1): 3.031 µm | d(0.5): 13.126 µm | d(0.9): 39.322 µm
